Assay results taken from US11952584B2, “Functional peptides having antimicrobial activity against phytopathogenic microorganisms” (TOYOTA JIDOSHA KABUSHIKI KAISHA, priority 2019, dated 2024).
Read-outs that look alike come from different tables or passages of the source.

Legend:
Assay type in all cases: cell-based
Pyricularia oryzae = settings: 25° C., 1 day or 2 days
[1] = system: Colletotrichum destructivum; settings: 25° C., 1 day or 2 days
[2] = system: Colletotrichum orbiculare; settings: 25° C., 1 day or 2 days
Fusarium oxysporum = system: Fusarium oxysporum
Botrytis cinerea = settings: 25° C., 1 day or 2 days

Row | Substance | Plate antimicrobial activity test Pyricularia oryzae (level) (Pyricularia oryzae; peptide 1 μM) | Plate antimicrobial activity test Pyricularia oryzae (level) (Pyricularia oryzae; peptide 10 μM) | Plate antimicrobial activity test Pyricularia oryzae (level) (Pyricularia oryzae; peptide 100 μM) | Plate antimicrobial activity test Colletotrichum destructivum (level) ([1]; peptide 1 μM) | Plate antimicrobial activity test Colletotrichum destructivum (level) ([1]; peptide 10 μM) | Plate antimicrobial activity test Colletotrichum destructivum (level) ([1]; peptide 100 μM) | Plate antimicrobial activity test Collectotrichum orbiculare (level) ([2]; peptide 1 μM) | Plate antimicrobial activity test Collectotrichum orbiculare (level) ([2]; peptide 10 μM) | Plate antimicrobial activity test Collectotrichum orbiculare (level) ([2]; peptide 100 μM) | Plate antimicrobial activity test Fusarium oxysporum (level) (Fusarium oxysporum) | Plate antimicrobial activity test Botrytis cinerea (level) (Botrytis cinerea; peptide 1 μM) | Plate antimicrobial activity test Botrytis cinerea (level) (Botrytis cinerea; peptide 10 μM) | Plate antimicrobial activity test Botrytis cinerea (level) (Botrytis cinerea; peptide 100 μM)
1 | WKGKT (listed as Solanum lycopersicum) [TsORF18-2-5aa-18] | 0 | 0 | 0 | 0 | 0 | 0 | 0 | 0 | 0 | 0 | 0 | 0 | 0
2 | PAFSERTR (listed as Solanum lycopersicum) [TsORF18-2-8aa-5] | 0 | 0 | 0 | 0 | 0 | 0 | 0 | 0 | 0 | 0 | 0 | 0 | 0
3 | YGFPA (listed as Solanum lycopersicum) [TsORF18-2-5aa-2] | 0 | 0 | 0 | 0 | 0 | 0 | 0 | 0 | 0 | 0 | 0 | 0 | 0
4 | SERTRKFW (listed as Solanum lycopersicum) [TsORF18-2-8aa-8] | 0 | 0 | 0 | 0 | 0 | 0 | 0 | 0 | 0 | 0 | 0 | 0 | 0
5 | FPAFS (listed as Solanum lycopersicum) [TsORF18-2-5aa-4] | 0 | 0 | 0 | 0 | 0 | 0 | 0 | 0 | 0 | 0 | 0 | 0 | 0
6 | RTRKF (listed as Solanum lycopersicum) [TsORF18-2-5aa-10] | 0 | 0 | 0 | 0 | 0 | 0 | 0 | 0 | 0 | 0 | 0 | 0 | 1
